Consider 29 compounds from patent US9944647B2 (Incyte Corporation, priority 2015, dated 2018).

Structures are written as SMILES.

The assay has as its target LSD-1 enzyme (Homo sapiens (Human), UniProt O60341). As to the kind of experiment: LANCE LSD1/KDM1A demethylase assay (LSD1 histone demethylase biochemical assay). Conditions: 1 nM LSD-1 enzyme, 1 hour preincubation at 25° C., Biotin-labeled Histone H3 peptide substrate.
`Cc1ncc(-c2c(-c3ccc(C#N)cc3)nc(OC[C@@H]3CCCN(C)C3)n3ccnc23)cc1C#N` [Example 70, 5-(7-(4-cyanophenyl)-5-{[(3R)-1-methylpiperidin-3-yl]methoxy}imidazo[1,2-c]pyrimidin-8-yl)-2-methylnicotinonitrile]: the IC50 was no more than 0.05 µM. The compound `Cc1ccc(-c2c(-c3ccc(C#N)cc3)nc(OC[C@@H]3CCCN(C)C3)n3ccnc23)cc1CO` [Example 71, 4-(8-[3-(hydroxymethyl)-4-methylphenyl]-5-{[(3R)-1-methylpiperidin-3-yl]methoxy}imidazo[1,2-c]pyrimidin-7-yl)benzonitrile] registered an IC50 of no more than 0.05 µM. Compound `Cc1ccc(-c2c(-c3ccc(C#N)cc3)nc(OC[C@@H]3CCCN(C)C3)n3ccnc23)c(CO)c1` [Example 72, 4-(8-[2-(hydroxymethyl)-4-methylphenyl]-5-{[(3R)-1-methylpiperidin-3-yl]methoxy}imidazo[1,2-c]pyrimidin-7-yl)benzonitrile] showed an IC50 of no more than 0.05 µM.

Turning to `Cc1ccc(-c2c(-c3ccc(C#N)cc3)nc(OC[C@@H]3CCCN(C)C3)n3ccnc23)cn1` [Example 73, 4-[5-{[(3R)-1-methylpiperidin-3-yl]methoxy}-8-(6-methylpyridin-3-yl)imidazo[1,2-c]pyrimidin-7-yl]benzonitrile], the 50% inhibitory concentration (IC50) lay in the range of 0.05 to 0.5 µM. `Cc1ncc(-c2c(-c3ccc(C#N)cc3)nc(OC[C@@H]3CCCN(C)C3)n3ccnc23)cc1F` [Example 74, 4-(8-(5-fluoro-6-methylpyridin-3-yl)-5-{[(3R)-1-methylpiperidin-3-yl]methoxy}imidazo[1,2-c]pyrimidin-7-yl)benzonitrile]: the IC50 was 0.05 to 0.5 µM. In turn, `COC(=O)N(C)c1ccc(-c2c(-c3ccc(C#N)cc3)nc(OC[C@@H]3CCCN(C)C3)n3ccnc23)cc1F` [Example 75] yielded an IC50 of 0.05 to 0.5 µM. `CN1CCC[C@@H](COc2nc(-c3ccc(C#N)cc3)c(-c3ccc4c(c3)OC(C(=O)N(C)C)CO4)c3nccn23)C1` (stereo partly drawn) [Example 76, 7-(7-(4-cyanophcnyl)-5-{[(3R)-1-methylpiperidin-3-yl]methoxy}imidazo[1,2-c]pyrimidin-8-yl)-N,N-dimethyl-2,3-dihydro-1,4-benzodioxine-2-carboxamide] returned an IC50 of no more than 0.05 µM. The compound `CN1CCC[C@@H](COc2nc(-c3ccc(C#N)cc3)c(-c3cnc4c(c3)CCN4C)c3nccn23)C1` [Example 77, 4-(8-(1-mcthyl-2.3-dihydro-1H-pyrrolo[2,3-b]pyridin-5-yl)-5-{[(3R)-1-methylpiperidin-3-yl]methoxy}imidazo[1,2-c]pyrimidin-7-yl)benzonitrile] gave a half-maximal inhibitory concentration (IC50) of no more than 0.05 µM. `CN1CCC[C@@H](COc2nc(-c3ccc(C#N)cc3)c(-c3cnc4c(c3)CCCN4C)c3nccn23)C1` [Example 78, 4-[5-{[(3R)-1-methylpiperidin-3-yl]methoxy}-8-(8-methyl-5,6,7,8-tetrahydro-1,8-naphthyridin-3-yl)imidazo[1,2-c]pyrimidin-7-yl]benzonitrile] returned an IC50 of no more than 0.05 µM. For the compound `CN1CCC[C@@H](COc2nc(-c3ccc(C#N)cc3)c(-c3ccc4c(c3)N(C)C(=O)CC4)c3nccn23)C1` [Example 79, 4-(8-(1-methyl-2-oxo-1,2,3,4-tetrahydroquinolin-7-yl)-5-{[(3R)-1-methylpiperidin-3-yl]methoxy}imidazo[1,2-c]pyrimidin-7-yl)benzonitrile], the half-inhibitory concentration (IC50) lay in the range of 0.05 to 0.5 µM.

In turn, `CN1CCC[C@@H](COc2nc(-c3ccc(C#N)cc3)c(-c3ccc(CN4CCOCC4)c(F)c3)c3nccn23)C1` [Example 80, 4-(8-[3-fluoro-4-(morpholin-4-ylmethyl)phenyl]-5-{[(3R)-1-methylpiperidin-3-yl]methoxy}imidazo[1,2-c]pyrimidin-7-yl)benzonitrile] displayed an IC50 of no more than 0.05 µM. `COc1ncc(-c2c(-c3ccc(C#N)cc3)nc(OC[C@@H]3CCCN(CCC#N)C3)n3ccnc23)cc1F` [Example 81, 4-[5-{[(3R)-1-(2-cyanoethyl)piperidin-3-yl]methoxy}-8-(5-fluoro-6-methoxypyridin-3-yl)imidazo[1,2-c]pyrimidin-7-yl]benzonitrile]: the IC50 lay within 0.05 to 0.5 µM. `CN(C)c1ncc(-c2c(-c3ccc(C#N)cc3)nc(N3CCC(N(C)C)CC3)n3ccnc23)cc1F` [Example 82, 4-{8-[6-(dimethylamino)-5-fluoropyridin-3-yl]-5-[4-(dimethylamino)piperidin-1-yl]imidazo[1,2-c]pyrimidin-7-yl}benzonitrile]: the IC50 was no more than 0.05 µM.

`Cn1c(=O)oc2cc(-c3c(-c4ccc(C#N)cc4)nc(OC[C@@H]4CCCN(CCC#N)C4)n4ccnc34)ccc21` [Example 83, 4-[5-{[(3R)-1-(2-cyanoethyl)piperidin-3-yl]methoxy}-8-(3-methyl-2-oxo-2,3-dihydro-1,3-benzoxazol-6-yl)imidazo[1,2-c]pyrimidin-7-yl]benzonitrile] showed an IC50 of no more than 0.05 µM. `CN1CCC[C@@H](COc2nc(-c3ccc(C#N)cc3)c(-c3ccc(CN(C)S(C)(=O)=O)c(F)c3)c3nccn23)C1` [Example 84, N-[4-(7-(4-cyanophenyl)-5-{[(3R)-1-methylpiperidin-3-yl]methoxy}imidazo[1,2-c]pyrimidin-8-yl)-2-fluorobenzyl]-N-methylmethanesulfonamide]: the IC50 was in the range of 0.05 to 0.5 µM. `CN1CCC[C@@H](COc2nc(-c3ccc(C#N)cc3)c(-c3ccc(CN(C)C(=O)N(C)C)c(F)c3)c3nccn23)C1` [Example 85, N-[4-(7-(4-cyanophenyl)-5-{[(3R)-1-methylpiperidin-3-yl]methoxy}imidazo[1,2-c]pyrimidin-8-yl)-2-fluorobenzyl]-N,N′,N′-trimethylurea] displayed an IC50 of no more than 0.05 µM. As for `CN1CCC[C@@H](COc2nc(-c3ccc(C#N)cc3)c(-c3ccc(CN(C)C(=O)N(C)C)cc3)c3nccn23)C1` [Example 86, N-[4-(7-(4-cyanophenyl)-5-{[(3R)-1-methylpiperidin-3-y1]methoxy}imidazo[1,2-c]pyrimidin-8-yl)benzyl]-N,N′,N′-trimethylurea], the IC50 is no more than 0.05 µM. `COC(=O)N(C)Cc1ccc(-c2c(-c3ccc(C#N)cc3)nc(OC[C@@H]3CCCN(C)C3)n3ccnc23)cc1` [Example 87, methyl [4-(7-(4-cyanophenyl)-5-{[(3R)-1-methylpiperidin-3-yl]methoxy}imidazo[1,2-c]pyrimidin-8-yl)benzyl]methylcarbamate]: the IC50 was no more than 0.05 µM. Compound `COc1ncc(-c2c(-c3ccc(C#N)cc3)nc(OC[C@@H]3CCCN(C)C3)n3ccnc23)cc1Cl` [Example 88, 4-(8-(5-chloro-6-methoxypyridin-3-yl)-5-{[(3R)-1-methylpiperidin-3-yl]methoxy}imidazo[1,2-c]pyrimidin-7-yl)benzonitrile] registered an IC50 of no more than 0.05 µM.

In the case of `Cc1cc(-c2c(-c3ccc(C#N)cc3)nc(N3CCC(N(C)C)CC3)n3ccnc23)cc(F)c1CO` [Example 89, 4-{5-[4-(dimethylamino)piperidin-1-yl]-8-[3-fluoro-4-(hydroxymethyl)-5-methylphenyl]imidazo[1,2-c]pyrimidin-7-yl}benzonitrile], the IC50 is no more than 0.05 µM. In the case of `CN(C)C1CCN(c2nc(-c3ccc(C#N)cc3)c(-c3cc(F)c(CO)c(F)c3)c3nccn23)CC1` [Example 90, 4-{8-[3,5-difluoro-4-(hydroxymethyl)phenyl]-5-[4-(dimethylamino)piperidin-1-yl]imidazo[1,2-c]pyrimidin-7-yl}benzonitrile] it was no more than 0.05 µM. For the compound `Cc1cc(-c2c(-c3ccc(C#N)cc3)nc(N3CCC(N(C)C)CC3)n3ccnc23)ccc1CO` [Example 91, 4-{5-[4-(dimethylamino)piperidin-1-yl]-8-[4-(hydroxymethyl)-3-methylphenyl]imidazo[1,2-c]pyrimidin-7-yl}benzonitrile], the IC50 is no more than 0.05 µM.

The compound `Cc1ncc(-c2c(-c3ccc(C#N)cc3)nc(OC[C@@H]3CCCN(C)C3)n3ccnc23)cc1Cl` [Example 92, 4-(8-(5-chloro-6-methylpyridin-3-yl)-5-{[(3R)-1-methylpiperidin-3-yl]methoxy}imidazo[1,2-c]pyrimidin-7-yl)benzonitrile] returned an IC50 of no more than 0.05 µM. As for `Cc1ccc(-c2c(-c3ccc(C#N)cc3)nc(OC[C@@H]3CCCN(C)C3)n3ccnc23)cc1C(C)O` (stereo partly drawn) [Example 93, 4-(8-[3-(1-hydroxyethyl)-4-methylphenyl]-5-{[(3R)-1-methylpiperidin-3-yl]methoxy}imidazo[1,2-c]pyrimidin-7-yl)benzonitrile], the figure is no more than 0.05 µM; as for `COCc1ccc(-c2c(-c3ccc(C#N)cc3)nc(OC[C@@H]3CCCN(C)C3)n3ccnc23)cc1` [Example 94, 4-(8-[4-(methoxymethyl)phenyl]-5-{[(3R)-1-methylpiperidin-3-yl]methoxy}imidazo[1,2-c]pyrimidin-7-yl)benzonitrile], no more than 0.05 µM; as for `CN1CCC[C@@H](COc2nc(-c3ccc(C#N)cc3)c(-c3ccc(CN4CCOCC4)cc3F)c3nccn23)C1` [Example 95, 4-(8-[2-fluoro-4-(morpholin-4-ylmethyl)phenyl]-5-{[(3R)-1-methylpiperidin-3-yl]methoxy}imidazo[1,2-c]pyrimidin-7-yl)benzonitrile], no more than 0.05 µM. As to `Cc1ccc(-c2c(-c3ccc(C#N)cc3)nc(OC[C@@H]3CCCN(C)C3)n3ccnc23)cc1C#N` [Example 96, 5-(7-(4-cyanophenyl)-5-{[(3R)-1-methylpiperidin-3-yl]methoxy}imidazo[1,2-c]pyrimidin-8-yl)-2-methylbenzonitrile], the IC50 is no more than 0.05 µM. In the case of `CN(C)C(=O)N(C)Cc1ccc(-c2c(-c3ccc(C#N)cc3)nc(N3CCC(N(C)C)CC3)n3ccnc23)cc1F` [Example 97, N-(4-{7-(4-cyanophenyl)-5-[4-(dimethylamino)piperidin-1-yl]imidazo[1,2-c]pyrimidin-8-yl}-2-fluorobenzyl)-N,N′,N′-trimethylurea] it was no more than 0.05 µM. `CN(C)C1CCN(c2nc(-c3ccc(C#N)cc3)c(-c3ccc(CN4CCOCC4)c(F)c3)c3nccn23)CC1` [Example 98, 4-{5-[4-(dimethylamino)piperidin-1-yl]-8-[3-fluoro-4-(morpholin-4-ylmethyl)phenyl]imidazo[1,2-c]pyrimidin-7-yl}benzonitrile] registered an IC50 of no more than 0.05 µM.

The term IC50 denotes the midpoint of a concentration-inhibition curve. The low end stands for greater potency, the high end for weaker potency.
